According to publication doi:10.1101/2023.02.14.528391v1 (biorxiv, 2023):

Key:
hERG potassium channel [1] = target: T1, hERG potassium channel (Homo sapiens, UniProt Q12809); assay: biochemical; conditions: hERG / IC50 (nM)
hERG potassium channel [2] = target: T1, hERG potassium channel; assay: in vitro; conditions: % inhibition
hERG potassium channel [3] = target: T1, hERG potassium channel; assay: biochemical; conditions: hERG / Ki (nM)
hERG potassium channel [4] = target: T1, hERG potassium channel; assay: radioligand competition binding, membranes

T1 sequence (Q12809 whole entry): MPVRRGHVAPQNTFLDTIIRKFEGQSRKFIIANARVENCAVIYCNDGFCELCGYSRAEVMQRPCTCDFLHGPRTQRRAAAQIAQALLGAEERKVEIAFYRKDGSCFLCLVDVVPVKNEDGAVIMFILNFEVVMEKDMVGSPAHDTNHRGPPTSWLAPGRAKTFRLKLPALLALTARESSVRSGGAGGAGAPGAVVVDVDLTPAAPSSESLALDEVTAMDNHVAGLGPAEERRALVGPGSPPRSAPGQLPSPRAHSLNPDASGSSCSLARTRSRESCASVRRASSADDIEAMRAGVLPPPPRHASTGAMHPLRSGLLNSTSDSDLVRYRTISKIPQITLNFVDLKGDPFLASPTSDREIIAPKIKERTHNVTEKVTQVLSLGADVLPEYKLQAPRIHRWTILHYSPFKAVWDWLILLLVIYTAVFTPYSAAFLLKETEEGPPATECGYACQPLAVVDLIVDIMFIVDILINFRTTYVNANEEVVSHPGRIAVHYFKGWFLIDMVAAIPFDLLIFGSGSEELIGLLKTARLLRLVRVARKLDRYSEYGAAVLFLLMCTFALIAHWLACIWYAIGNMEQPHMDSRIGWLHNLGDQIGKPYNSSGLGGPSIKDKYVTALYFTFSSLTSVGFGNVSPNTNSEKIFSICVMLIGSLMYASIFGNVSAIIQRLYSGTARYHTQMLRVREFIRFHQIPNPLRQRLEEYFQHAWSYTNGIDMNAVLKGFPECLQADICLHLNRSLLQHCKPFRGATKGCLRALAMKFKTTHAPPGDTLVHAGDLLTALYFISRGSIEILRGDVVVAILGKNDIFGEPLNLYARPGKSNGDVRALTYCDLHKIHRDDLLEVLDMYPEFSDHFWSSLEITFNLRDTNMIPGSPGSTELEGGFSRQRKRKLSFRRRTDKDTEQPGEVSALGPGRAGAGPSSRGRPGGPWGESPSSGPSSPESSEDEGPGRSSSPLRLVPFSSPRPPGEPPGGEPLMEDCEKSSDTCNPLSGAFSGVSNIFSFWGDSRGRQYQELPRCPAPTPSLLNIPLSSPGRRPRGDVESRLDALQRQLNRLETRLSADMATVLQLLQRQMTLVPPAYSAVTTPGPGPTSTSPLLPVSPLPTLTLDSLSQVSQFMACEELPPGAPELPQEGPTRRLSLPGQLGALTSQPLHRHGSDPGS

Compound: CN(C)CCCN(Cc1ccc(Cl)c(Cl)c1)c1ncnc2ccn(C)c12 [m_27____7425384____18313558]
- IC50 (hERG potassium channel [1]; Synthesis=Enamine): 854 nM
- inhibition at 10 µM (hERG potassium channel [2]): 75.9%
- Ki (hERG potassium channel [3]; Synthesis=Enamine): 604 nM

Compound: CN(C)CCN(Cc1ccccc1F)C(=O)c1csc2ccccc12 [s_527____7348186____205300]
- IC50 (hERG potassium channel [1]; Synthesis=Enamine): 7040 nM
- inhibition at 10 µM (hERG potassium channel [2]): 55.6%
- Ki (hERG potassium channel [3]; Synthesis=Enamine): 4980 nM

Compound: CN(C)CCN(Cc1cccs1)c1nccc(F)c1Cl [s_27____7100914____15703356]
- IC50 (hERG potassium channel [1]; Synthesis=Enamine): 7320 nM
- inhibition at 10 µM (hERG potassium channel [2]): 55.7%
- Ki (hERG potassium channel [3]; Synthesis=Enamine): 5180 nM

Compound: CN(C)CCN(Cc1cccc(Cl)c1)c1nccc2cnccc12 [s_27____7100894____16733638]
- IC50 (hERG potassium channel [1]; Synthesis=Enamine): 119 nM
- inhibition at 10 µM (hERG potassium channel [2]): 99.7%
- Ki (hERG potassium channel [3]; Synthesis=Enamine): 84 nM

Compound: CN(C)CCCN(CCCN(C)C)c1ccc2c(Br)ccc(Cl)c2n1 [s_27____6492506____8281582]
- IC50 (hERG potassium channel [1]; Synthesis=Enamine): 3250 nM
- inhibition at 10 µM (hERG potassium channel [2]): 69%
- Ki (hERG potassium channel [3]; Synthesis=Enamine): 2300 nM

Compound: CN(C)CCCn1nc(-c2ccccc2)c2ccccc2c1=O [s_49____14518112____88928]
- IC50 (hERG potassium channel [1]; Synthesis=Enamine): 3710 nM
- Ki (hERG potassium channel [3]; Synthesis=Enamine): 2620 nM

Compound: CN(C)CCCn1nc(-c2cccs2)c2ccccc2c1=O [compound 2, s_49__14518112__101877]
- Ki (hERG potassium channel [4]): 0.946 µM

Compound: CSc1nccc(N(CCCN(C)C)Cc2ccc(Cl)c(Cl)c2)n1 [s_27____7425384____15607934]
- IC50 (hERG potassium channel [1]; Synthesis=Enamine): 1090 nM
- inhibition at 10 µM (hERG potassium channel [2]): 86.6%
- Ki (hERG potassium channel [3]; Synthesis=Enamine): 772 nM

Compound: CN(C)CCCN(Cc1ccc(Cl)c(Cl)c1)c1nccc2cccnc12 [s_27____7425384____16803680]
- IC50 (hERG potassium channel [1]; Synthesis=Enamine): 91.8 nM
- inhibition at 10 µM (hERG potassium channel [2]): 96.3%
- Ki (hERG potassium channel [3]; Synthesis=Enamine): 64.9 nM

Compound: CN(C)CCCn1nc(-c2cncc(Cl)c2)c2ccccc2c1=O [GMD_27933]
- IC50 (hERG potassium channel [1]; Synthesis=NBI): 968 nM
- inhibition at 10 µM (hERG potassium channel [2]): 80.4%
- Ki (hERG potassium channel [3]; Synthesis=NBI): 684 nM

Compound: CN(C)CCN(Cc1ccccc1)Cc1nc2ccccc2n1C [s_270004____10205888____7548808]
- IC50 (hERG potassium channel [1]; Synthesis=Enamine): 1480 nM
- inhibition at 10 µM (hERG potassium channel [2]): 75%
- Ki (hERG potassium channel [3]; Synthesis=Enamine): 1050 nM

Compound: CN(C)CCN(Cc1ccccc1F)C(=O)N1CCCc2c(Cl)ccnc21 [s_272164____17323936____17325014]
- IC50 (hERG potassium channel [1]; Synthesis=Enamine): 425 nM
- inhibition at 10 µM (hERG potassium channel [2]): 90.6%
- Ki (hERG potassium channel [3]; Synthesis=Enamine): 300 nM

Compound: CN(C)CCCn1nc(-c2ccc(Cl)cc2)c2ccccc2c1=O [GMD_12503]
- IC50 (hERG potassium channel [1]; Synthesis=NBI): 1220 nM
- inhibition at 10 µM (hERG potassium channel [2]): 72.4%
- Ki (hERG potassium channel [3]; Synthesis=NBI): 866 nM

Compound: CN(C)CCCc1nc2ccccc2n1Cc1ccccc1 [compound 5, GMD_18471]
- Ki (hERG potassium channel [4]): 0.4 µM
- IC50 (hERG potassium channel [1]; Synthesis=NBI): 565 nM
- inhibition at 10 µM (hERG potassium channel [2]): 88.9%

Compound: CN(C)CCCn1nc(-c2cccc(Cl)c2)c2ccccc2c1=O [GMD_9433]
- IC50 (hERG potassium channel [1]; Synthesis=NBI): 721 nM
- inhibition at 10 µM (hERG potassium channel [2]): 92.5%
- Ki (hERG potassium channel [3]; Synthesis=NBI): 510 nM

Compound: CN(C)CCN(C)c1nc2ccccc2n1Cc1ccccc1F [GMD_15306]
- IC50 (hERG potassium channel [1]; Synthesis=NBI): 3040 nM
- inhibition at 10 µM (hERG potassium channel [2]): 40.7%
- Ki (hERG potassium channel [3]; Synthesis=NBI): 2150 nM

Compound: CN(C)CCN(Cc1ccccc1)c1nc2cccc(F)c2s1 [compound 4, s_27__7100858__10689034]
- Ki (hERG potassium channel [4]): 1.59 µM

Compound: CN(C)CCn1nc(-c2ccc(Cl)cc2)c2ccccc2c1=O [NBI1099469]
- IC50 (hERG potassium channel [1]; Synthesis=NBI): 1740 nM
- inhibition at 10 µM (hERG potassium channel [2]): 71.7%
- Ki (hERG potassium channel [3]; Synthesis=NBI): 1230 nM

Compound: CN(C)CCCn1nc(-c2ccccc2)c2ccccc2c1=O [GMD_14496]
- IC50 (hERG potassium channel [1]; Synthesis=NBI): 3580 nM
- inhibition at 10 µM (hERG potassium channel [2]): 54.2%
- Ki (hERG potassium channel [3]; Synthesis=NBI): 2530 nM

Compound: CN(C)CCCN(Cc1ccc(Cl)c(Cl)c1)c1ncc(Cl)cc1[N+](=O)[O-] [s_27____7425384____7556080]
- IC50 (hERG potassium channel [1]; Synthesis=Enamine): 1030 nM
- inhibition at 10 µM (hERG potassium channel [2]): 78.8%
- Ki (hERG potassium channel [3]; Synthesis=Enamine): 729 nM

Compound: CN(C)CCN(Cc1cccc(Cl)c1)c1cncc(Cl)n1 [s_27____7100894____215633]
- IC50 (hERG potassium channel [1]; Synthesis=Enamine): 1660 nM
- inhibition at 10 µM (hERG potassium channel [2]): 78.1%
- Ki (hERG potassium channel [3]; Synthesis=Enamine): 1180 nM

Compound: CN(C)CCn1nc(-c2ccccc2Cl)c2ccccc2c1=O [GMD_12767]
- IC50 (hERG potassium channel [1]; Synthesis=NBI): 1590 nM
- inhibition at 10 µM (hERG potassium channel [2]): 84.2%
- Ki (hERG potassium channel [3]; Synthesis=NBI): 1120 nM

Compound: CN(C)CCn1nc(-c2cccc(Cl)c2)c2ccccc2c1=O [GMD_13630]
- IC50 (hERG potassium channel [1]; Synthesis=NBI): 2420 nM
- inhibition at 10 µM (hERG potassium channel [2]): 79.1%
- Ki (hERG potassium channel [3]; Synthesis=NBI): 1710 nM

Compound: CN(C)CCN(Cc1cccs1)c1ccncc1Cl [s_27____7100914____16711384]
- IC50 (hERG potassium channel [1]; Synthesis=Enamine): 8570 nM
- inhibition at 10 µM (hERG potassium channel [2]): 49.5%
- Ki (hERG potassium channel [3]; Synthesis=Enamine): 6060 nM

Compound: CCc1csc(N(CCCN(C)C)Cc2ccc(Cl)c(Cl)c2)n1 [s_27____7425384____12641810]
- IC50 (hERG potassium channel [1]; Synthesis=Enamine): 1070 nM
- inhibition at 10 µM (hERG potassium channel [2]): 86.2%
- Ki (hERG potassium channel [3]; Synthesis=Enamine): 757 nM

Compound: CN(C)CCCn1nc(-c2ccc(Cl)cc2)c2ccccc2c1=O [compound 3, s_49__14518112__88929]
- Ki (hERG potassium channel [4]): 0.643 µM

Compound: CN(C)CCCn1nc(-c2ccc(F)cc2)c2ccccc2c1=O [compound 1, s_49__14518112__1114614]
- Ki (hERG potassium channel [4]): 1.49 µM

Compound: CN(C)CCN(Cc1ccccc1F)Cc1c(Cl)ccc2cccnc12 [s_270004____10205940____8625260]
- IC50 (hERG potassium channel [1]; Synthesis=Enamine): 82.5 nM
- inhibition at 10 µM (hERG potassium channel [2]): 88.9%
- Ki (hERG potassium channel [3]; Synthesis=Enamine): 58.3 nM

Compound: CSc1ncccc1-c1nn(CCCN(C)C)c(=O)c2ccccc12 [NBI1100649]
- IC50 (hERG potassium channel [1]; Synthesis=NBI): 8700 nM
- inhibition at 10 µM (hERG potassium channel [2]): 28.2%
- Ki (hERG potassium channel [3]; Synthesis=NBI): 6150 nM

Compound: CN(C)CCN(Cc1cccc(Cl)c1)c1ncncc1Cl [s_27____7100894____9139880]
- IC50 (hERG potassium channel [1]; Synthesis=Enamine): 717 nM
- inhibition at 10 µM (hERG potassium channel [2]): 91.6%
- Ki (hERG potassium channel [3]; Synthesis=Enamine): 507 nM

Compound: CN(C)CCCn1nc(-c2cccnc2)c2ccccc2c1=O [GMD_11677]
- IC50 (hERG potassium channel [1]; Synthesis=NBI): 11100 nM
- inhibition at 10 µM (hERG potassium channel [2]): 31.1%
- Ki (hERG potassium channel [3]; Synthesis=NBI): 7870 nM

Compound: CN(C)CCn1c(-c2ccccc2Cl)nc2ccccc21 [s_60____1081314____90809]
- IC50 (hERG potassium channel [1]; Synthesis=Enamine): 7050 nM
- inhibition at 10 µM (hERG potassium channel [2]): 2.2%
- Ki (hERG potassium channel [3]; Synthesis=Enamine): 4990 nM

Compound: CN(C)CCCn1nc(-c2ccccn2)c2ccccc2c1=O [GMD_13497]
- IC50 (hERG potassium channel [1]; Synthesis=NBI): 6070 nM
- inhibition at 10 µM (hERG potassium channel [2]): 33.6%
- Ki (hERG potassium channel [3]; Synthesis=NBI): 4300 nM

Compound: CN(C)CCN(Cc1cccc(F)c1)Cc1c(Cl)ccc2cccnc12 [s_270004____10206024____8625260]
- IC50 (hERG potassium channel [1]; Synthesis=Enamine): 156 nM
- inhibition at 10 µM (hERG potassium channel [2]): 97%
- Ki (hERG potassium channel [3]; Synthesis=Enamine): 110 nM
